Assay results as given in ChEMBL document CHEMBL1157715, “Probes for narcotic receptor mediated phenomena. 40. N-substituted cis-4a-ethyl-1,2,3,4,4a,9a-hexahydrobenzofuro[2,3-c]pyridin-8-ols” (Bioorg Med Chem, 2010).

Assays:
Assay type in all cases: cell-based
[1] = target: Kappa-type opioid receptor (Homo sapiens, UniProt P41145); assay: Displacement of [3H]U69593 from kappa opioid receptor expressed in CHO cells
[2] = target: Delta-type opioid receptor (Homo sapiens, UniProt P41143); assay: Displacement of [3H]DADLE from delta opioid receptor expressed in CHO cells
Mu-type opioid receptor = Mu-type opioid receptor (Homo sapiens, UniProt P35372); assay: Displacement of [3H]DAMGO from mu opioid receptor expressed in CHO cells
Chain of Mu-type opioid receptor (P35372 whole entry): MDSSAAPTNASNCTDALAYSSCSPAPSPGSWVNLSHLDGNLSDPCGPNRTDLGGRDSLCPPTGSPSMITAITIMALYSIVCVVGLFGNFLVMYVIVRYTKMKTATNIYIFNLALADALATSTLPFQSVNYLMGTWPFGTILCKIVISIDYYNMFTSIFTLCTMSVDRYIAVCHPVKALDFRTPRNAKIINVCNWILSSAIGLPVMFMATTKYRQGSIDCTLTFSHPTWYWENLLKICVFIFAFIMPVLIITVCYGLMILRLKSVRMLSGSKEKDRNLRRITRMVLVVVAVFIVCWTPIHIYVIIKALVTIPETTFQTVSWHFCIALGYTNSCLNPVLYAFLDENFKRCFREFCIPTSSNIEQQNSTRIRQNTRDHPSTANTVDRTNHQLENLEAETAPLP

Chain of Kappa-type opioid receptor (P41145 whole entry): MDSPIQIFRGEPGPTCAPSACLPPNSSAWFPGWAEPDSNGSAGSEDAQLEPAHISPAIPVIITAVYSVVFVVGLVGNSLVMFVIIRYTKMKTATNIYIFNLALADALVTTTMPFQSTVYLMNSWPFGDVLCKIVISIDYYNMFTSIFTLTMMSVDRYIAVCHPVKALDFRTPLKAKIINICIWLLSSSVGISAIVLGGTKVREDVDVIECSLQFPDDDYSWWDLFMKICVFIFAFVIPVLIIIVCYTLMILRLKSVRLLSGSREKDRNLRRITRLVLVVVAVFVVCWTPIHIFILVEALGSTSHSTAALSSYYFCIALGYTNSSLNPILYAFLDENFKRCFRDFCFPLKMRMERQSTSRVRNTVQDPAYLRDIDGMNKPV
Chain of Delta-type opioid receptor (P41143 whole entry): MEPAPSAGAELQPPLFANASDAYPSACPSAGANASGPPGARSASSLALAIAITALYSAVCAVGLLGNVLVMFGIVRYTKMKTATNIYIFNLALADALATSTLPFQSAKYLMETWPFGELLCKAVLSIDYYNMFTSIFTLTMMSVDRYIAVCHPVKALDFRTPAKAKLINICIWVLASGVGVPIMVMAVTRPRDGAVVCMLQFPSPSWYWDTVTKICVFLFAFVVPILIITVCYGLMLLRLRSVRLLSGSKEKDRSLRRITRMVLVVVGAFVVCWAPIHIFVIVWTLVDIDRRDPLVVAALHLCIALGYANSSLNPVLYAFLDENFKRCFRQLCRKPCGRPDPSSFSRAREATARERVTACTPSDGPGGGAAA

SMILES | Ki [1] | Ki [2] | Ki (Mu-type opioid receptor)
CC[C@@]12CCN(C)C[C@@H]1Oc1c(O)cccc12 (racemic) | > 10 µM | 7.48 µM | 0.795 µM
CC[C@@]12CCN(Cc3ccc(F)cc3)C[C@@H]1Oc1c(O)cccc12 (racemic) | 3.38 µM | > 4.5 µM | > 2.7 µM
CC[C@@]12CCN(CCc3ccc([N+](=O)[O-])cc3)C[C@@H]1Oc1c(O)cccc12 (racemic) | 0.72 µM | 2.26 µM | 0.67 µM
CN1CC[C@@]2(CCc3ccccc3)c3cccc(O)c3O[C@H]2C1 (racemic) | 2.88 µM | > 4.3 µM | 0.74 µM
CC[C@@]12CCN(CCc3ccccc3)C[C@@H]1Oc1ccc(O)cc12 | 0.088 µM | 0.075 µM | 0.0007 µM
CC[C@@]12CCN(CCc3ccc(F)cc3)C[C@@H]1Oc1c(O)cccc12 (racemic) | 0.935 µM | > 4.5 µM | 0.354 µM
Oc1ccc2c(c1)C1CCN(CC3CC3)CC1O2 (stereo unspecified) |  |  | 0.004 µM
CC[C@@]12CCN(CC3CC3)C[C@@H]1Oc1c(O)cccc12 (racemic) | 10 µM | 6.15 µM | 4.67 µM
CC[C@@]12CCN(CCc3ccccc3)C[C@@H]1Oc1c(O)cccc12 (racemic) | 2.22 µM | 7.21 µM | 1.63 µM
Oc1ccc2c(c1)C1CCN(CCc3ccccc3)CC1O2 (stereo unspecified) |  |  | 0.0009 µM
